Measured values reported in patent US20260200897A1, “4-((5-(3-(4-(PYRIDIN-2-YL)CYCLOPENTYL)-1H-PYRAZOL-3-YL)AMINO)-BENZENESULFONAMIDE DERIVATIVES AND SIMILAR COMPOUNDS AS CDK INHIBITORS FOR THE TREATMENT OF CANCER” (BeOne Medicines I GmbH, priority 2023, published 2026).

Columns and labels:
CDK1/Cyclin B1 [1] = target: T1, CDK1/Cyclin B1 (Homo sapiens, UniProt P06493); assay: CDK1/Cyclin B1 TR-FRET biochemical assay, 0.015 mM ATP; conditions: 0.15 μM Rb (Ser780)-biotin substrate, 120 min reaction, Table 1
Description: (§1) Compounds disclosed herein were tested for inhibition of CDK2/Cyclin E1 or CDK1/Cyclin B1 kinase in an assay based on the time-resolved fluorescence-resonance energy transfer (TR-FRET) methodology. The assay was carried out in 384-well low volume black plates in a reaction mixture containing CDK2/Cyclin E1 or CDK1/Cyclin B1, 0.060 mM ATP for CDK2/Cyclin E1 or 0.015 mM ATP for CDK1/Cyclin B1, 0.15 μM Rb (Ser780)-biotin substrate and 0-10 μM compound in buffer containing 50 mM HEPES pH7.0, 0.02% NaN3, 0.01% BSA, 0.1 mM Orthovanadate, 50 mM MgCl2, 1 mM DTT and 0.005% Tween-20. The kinase was incubated with compound for 60 minutes at room temperature and the reaction was initiated by the addition of ATP and Rb (Ser780)-biotin substrate. After reaction at room temperature for 120 minutes, an equal volume of stop/detection solution was added according to the manufacture's instruction (Cisbio Bioassays). The stop/detection solution contained Streptavidin-XL665 and Anti-pRb (Ser780) mAb-Eu Cryptate in Detection buffer (Cisbio Bioassays). Plates were incubated at room temperature for 60 minutes, and the TR-FRET signals (ex337 nm, em665 nm/620 nm) were recorded on a PHERAstar FSX plate reader (BMG Labtech). The inhibition percentage of CDK2/Cyclin E1 or CDK1/Cyclin B1 kinase activity in presence of increasing concentrations of compounds was calculated based on the ratio of fluorescence at 665 nm to that at 620 nm. The IC50 for each compound was derived from fitting the data to the four-parameter logistic equation by Dotmatics.

CDK2/Cyclin E1 [2] = target: T2, CDK2/Cyclin E1 (Homo sapiens, UniProt P24941); assay: CDK2/Cyclin E1 TR-FRET biochemical assay, 0.060 mM ATP; conditions: 0.15 μM Rb (Ser780)-biotin substrate, 120 min reaction, Table 1
Description: as §1

CDK1/Cyclin B1 [3] = target: T1, CDK1/Cyclin B1; assay: CDK1/Cyclin B1 TR-FRET biochemical assay, 1 mM ATP; conditions: 0.15 μM Rb (Ser780)-biotin substrate, 90 min reaction, Table 2
CDK2/Cyclin E1 [4] = target: T2, CDK2/Cyclin E1; assay: CDK2/Cyclin E1 TR-FRET biochemical assay, 1 mM ATP; conditions: 0.15 μM Rb (Ser780)-biotin substrate, 90 min reaction, Table 2

T1 sequence (P06493 whole entry): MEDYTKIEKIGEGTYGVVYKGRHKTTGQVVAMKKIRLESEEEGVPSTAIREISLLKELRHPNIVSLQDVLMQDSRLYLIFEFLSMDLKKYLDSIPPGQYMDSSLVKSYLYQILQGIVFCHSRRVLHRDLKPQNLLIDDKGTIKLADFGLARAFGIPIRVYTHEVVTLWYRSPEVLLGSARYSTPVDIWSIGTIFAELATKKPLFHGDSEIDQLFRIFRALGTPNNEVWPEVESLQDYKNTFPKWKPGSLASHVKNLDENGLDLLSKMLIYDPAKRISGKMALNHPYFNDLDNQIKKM
T1 sequence (P14635 whole entry partner): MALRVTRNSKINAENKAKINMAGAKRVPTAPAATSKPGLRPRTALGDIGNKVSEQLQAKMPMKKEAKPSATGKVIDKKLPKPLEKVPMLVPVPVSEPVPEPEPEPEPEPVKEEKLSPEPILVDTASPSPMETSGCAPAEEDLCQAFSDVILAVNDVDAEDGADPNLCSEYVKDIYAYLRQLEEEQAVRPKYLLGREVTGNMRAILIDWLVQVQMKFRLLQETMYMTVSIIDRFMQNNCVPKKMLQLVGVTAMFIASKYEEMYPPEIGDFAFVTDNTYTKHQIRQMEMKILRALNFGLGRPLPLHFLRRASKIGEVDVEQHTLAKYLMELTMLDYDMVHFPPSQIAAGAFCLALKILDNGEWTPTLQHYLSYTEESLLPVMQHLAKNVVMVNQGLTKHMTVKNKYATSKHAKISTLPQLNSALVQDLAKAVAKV

SMILES | IC50 (CDK1/Cyclin B1 [1]) [nM] | IC50 (CDK2/Cyclin E1 [2]) [nM] | IC50 (CDK1/Cyclin B1 [3]) [nM] | IC50 (CDK2/Cyclin E1 [4]) [nM]
O=S1(=O)NCc2c1ccc(Nc1cc([C@H]3CC[C@@H](Oc4cc(C(F)(F)F)n[nH]4)C3)[nH]n1)c2F (relative stereo) [Example 69, cis-4-fluoro-5-((5-(3-((3-(trifluoromethyl)-1H-pyrazol-5-yl)oxy)cyclopentyl)-1H-pyrazol-3-yl)amino)-2,3-dihydrobenzo[d]isothiazole 1,1-dioxide] | > 10000 | 829 |  | 
O=S1(=O)NCc2c1ccc(Nc1cc([C@H]3CC[C@@H](Oc4cn[nH]c4)C3)[nH]n1)c2F (relative stereo) [Example 76, cis-5-((5-(3-((1H-pyrazol-4-yl)oxy)cyclopentyl)-1H-pyrazol-3-yl)amino)-4-fluoro-2,3-dihydrobenzo[d]isothiazole 1,1-dioxide] | 1610 | 53 |  | 
CC(C)c1cncc(O[C@@H]2CC[C@H](c3cc(Nc4ccc5c(c4F)CNS5(=O)=O)n[nH]3)C2)c1 (relative stereo) [Example 44, cis-4-fluoro-5-((5-(3-((5-isopropylpyridin-3-yl)oxy)cyclopentyl)-1H-pyrazol-3-yl)amino)-2,3-dihydrobenzo[d]isothiazole 1,1-dioxide] | 8340 | 1400 |  | 
O=c1ccsn1[C@H]1CC[C@@H](c2cc(Nc3ccc4c(c3F)CNS4(=O)=O)n[nH]2)C1 (relative stereo) [Example 51, cis-2-(3-(3-((4-fluoro-1,1-dioxido-2,3-dihydrobenzo[d]isothiazol-5-yl)amino)-1H-pyrazol-5-yl)cyclopentyl)isothiazol-3 (2H)-one] | 1770 | 214 |  | 
O=S1(=O)Cc2cc(Nc3cc(C4CCC(c5ncc(CO)o5)C4)[nH]n3)ccc2N1 (centres unmarked) [Example 134, 5-((5-(3-(5-(hydroxymethyl)oxazol-2-yl)cyclopentyl)-1H-pyrazol-3-yl)amino)-1,3-dihydrobenzo[c]isothiazole 2,2-dioxide] | 1110 | 41 |  | 
CC(C)c1cnn([C@H]2CC[C@@H](c3cc(Nc4ccc5c(c4F)CNS5(=O)=O)n[nH]3)C2)c(=O)c1 (relative stereo) [Example 33, cis-2-(3-(3-((4-fluoro-1,1-dioxido-2,3-dihydrobenzo[d]isothiazol-5-yl)amino)-1H-pyrazol-5-yl)cyclopentyl)-5-isopropylpyridazin-3 (2H)-one] | 703 | 7.5 |  | 
O=S1(=O)NCc2c1ccc(Nc1cc([C@H]3CC[C@@H](Oc4ccnn4-c4ccccc4)C3)[nH]n1)c2F (relative stereo) [Example 70, (cis)-4-fluoro-5-((5-(3-((1-phenyl-1H-pyrazol-5-yl)oxy)cyclopentyl)-1H-pyrazol-3-yl)amino)-2,3-dihydrobenzo[d]isothiazole 1,1-dioxide] | > 10000 | > 10000 |  | 
CCc1cnc(C2CCC(c3cc(Nc4ccc5c(c4F)CS(=O)(=O)N5)n[nH]3)C2)o1 (centres unmarked) [Example 144, 5-((5-(3-(5-ethyloxazol-2-yl)cyclopentyl)-1H-pyrazol-3-yl)amino)-4-fluoro-1,3-dihydrobenzo[c]isothiazole 2,2-dioxide] | 334 | 16 |  | 
O=S1(=O)NCc2c1ccc(Nc1cc([C@H]3CC[C@@H](Oc4cccnn4)C3)[nH]n1)c2F (relative stereo) [Example 22, cis-4-fluoro-5-((5-(3-(pyridazin-3-yloxy)cyclopentyl)-1H-pyrazol-3-yl)amino)-2,3-dihydrobenzo[d]isothiazole 1,1-dioxide] | 239 | 43 |  | 
CC(C)c1ccnnc1O[C@@H]1CC[C@H](c2cc(Nc3ccc4c(c3F)CNS4(=O)=O)n[nH]2)C1 (relative stereo) [Example 27, cis-4-fluoro-5-((5-(3-((4-isopropylpyridazin-3-yl)oxy)cyclopentyl)-1H-pyrazol-3-yl)amino)-2,3-dihydrobenzo[d]isothiazole 1,1-dioxide] | 3.7 | 0.7 |  | 
CC(C)(C)c1cnc(C2CCC(c3cc(Nc4ccc5c(c4F)CNS5(=O)=O)n[nH]3)C2)o1 (single isomer, unassigned) [Example 91a, cis-5-((5-(3-(5-(tert-butyl)oxazol-2-yl)cyclopentyl)-1H-pyrazol-3-yl)amino)-4-fluoro-2,3-dihydrobenzo[d]isothiazole 1,1-dioxide] | 53 | 1.3 |  | 
CC(C)(C)c1ncccc1O[C@@H]1CC[C@H](c2cc(Nc3ccc4c(c3F)CNS4(=O)=O)n[nH]2)C1 (relative stereo) [Example 45, cis-5-((5-(3-((2-(tert-butyl)pyridin-3-yl)oxy)cyclopentyl)-1H-pyrazol-3-yl)amino)-4-fluoro-2,3-dihydrobenzo[d]isothiazole 1,1-dioxide] | 7120 | 764 |  | 
Cc1ncccc1O[C@@H]1CC[C@H](c2cc(Nc3ccc4c(c3F)CNS4(=O)=O)n[nH]2)C1 (relative stereo) [Example 40, cis-4-fluoro-5-((5-(3-((2-methylpyridin-3-yl)oxy)cyclopentyl)-1H-pyrazol-3-yl)amino)-2,3-dihydrobenzo[d]isothiazole 1,1-dioxide] | 552 | 19 |  | 
CC(C)n1cc(O[C@@H]2CC[C@H](c3cc(Nc4ccc5c(c4F)CNS5(=O)=O)n[nH]3)C2)cn1 (relative stereo) [Example 78, cis-4-fluoro-5-((5-(3-((1-isopropyl-1H-pyrazol-4-yl)oxy)cyclopentyl)-1H-pyrazol-3-yl)amino)-2,3-dihydrobenzo[d]isothiazole 1,1-dioxide] | > 10000 | 306 |  | 
O=S1(=O)NCc2c1ccc(Nc1cc([C@H]3CC[C@@H](Oc4nnccc4C4CC4)C3)[nH]n1)c2F (relative stereo) [Example 29, cis-5-((5-(3-((4-cyclopropylpyridazin-3-yl)oxy)cyclopentyl)-1H-pyrazol-3-yl)amino)-4-fluoro-2,3-dihydrobenzo[d]isothiazole 1,1-dioxide] | 35 | 2.9 |  | 
CC(C)c1cnc(C2CCC(c3cc(Nc4ccc5c(c4)CS(=O)(=O)N5)n[nH]3)C2)o1 (single isomer, unassigned) [Example 138b, cis-5-((5-(3-(5-isopropyloxazol-2-yl)cyclopentyl)-1H-pyrazol-3-yl)amino)-1,3-dihydrobenzo[c]isothiazole 2,2-dioxide] |  |  | 2420 | 12
O=S1(=O)NCc2cc(Nc3cc(C4CCC(c5ncc(C6CC6)o5)C4)[nH]n3)c(F)cc21 (centres unmarked) [Example 20, 5-((5-(3-(5-cyclopropyloxazol-2-yl)cyclopentyl)-1H-pyrazol-3-yl)amino)-6-fluoro-2,3-dihydrobenzo[d]isothiazole 1,1-dioxide] |  |  | > 10000 | 73
COC(=O)c1nc(C2CCC(c3cc(Nc4ccc5c(c4F)CNS5(=O)=O)n[nH]3)C2)oc1C(C)(C)C (centres unmarked) [Example 113, methyl 5-(tert-butyl)-2-(3-(3-((4-fluoro-1,1-dioxido-2,3-dihydrobenzo[d]isothiazol-5-yl)amino)-1H-pyrazol-5-yl)cyclopentyl)oxazole-4-carboxylate] |  |  | > 10000 | 235
CC(C)(C)c1cnc(C2CCC(c3cc(Nc4cc5c(cc4F)S(=O)(=O)NC5)n[nH]3)C2)o1 (single isomer, unassigned) [Example 17d, 5-((5-(3-(5-(tert-butyl)oxazol-2-yl)cyclopentyl)-1H-pyrazol-3-yl)amino)-6-fluoro-2,3-dihydrobenzo[d]isothiazole 1,1-dioxide] |  |  | > 10000 | 2870
NS(=O)(=O)c1ccc(Nc2cc(C3CCC(c4ncc(C5CC5)o4)C3)[nH]n2)c(F)c1 (centres unmarked) [Example 9, 4-((5-(3-(5-cyclopropyloxazol-2-yl)cyclopentyl)-1H-pyrazol-3-yl)amino)-3-fluorobenzenesulfonamide] |  |  | > 10000 | 131
Cc1[nH]nc(C(C)(C)C)c1O[C@@H]1CC[C@H](c2cc(Nc3ccc4c(c3F)CNS4(=O)=O)n[nH]2)C1 (relative stereo) [Example 80, cis-5-((5-(3-((3-(tert-butyl)-5-methyl-1H-pyrazol-4-yl)oxy)cyclopentyl)-1H-pyrazol-3-yl)amino)-4-fluoro-2,3-dihydrobenzo[d]isothiazole 1,1-dioxide] |  |  | > 10000 | 1120
CC(C)(C)C1CCC(C2CCC(c3cc(Nc4ccc5c(c4F)CNS5(=O)=O)n[nH]3)C2)O1 (centres unmarked) [Example 104, 5-((5-(3-(5-(tert-butyl)tetrahydrofuran-2-yl)cyclopentyl)-1H-pyrazol-3-yl)amino)-4-fluoro-2,3-dihydrobenzo[d]isothiazole 1,1-dioxide] |  |  | > 10000 | 1790
